In assay [1] the target is T1, Mu-type opioid receptor (Homo sapiens, UniProt P35372). Put plainly: Antagonist activity at human mu opioid receptor expressed in CHO cells assessed as inhibition of DAMGO-induced [35S]GTPgammaS binding. It counts as functional, cell-based. In general terms: GTPγS is a poorly hydrolysed GTP analogue; its binding reports G protein activation.
The target in assay [2] is T1, Mu-type opioid receptor. Briefly: Displacement of [3H]DAMGO from human mu opioid receptor expressed in CHO cells. The format is cell-based. For orientation: Loss of bound radioactivity is the signal in a displacement assay; it reports binding, not function.
Assay [3] deals with Delta-type opioid receptor (Homo sapiens, UniProt P41143). Briefly: Displacement of [3H]Naltrindole from human delta opioid receptor expressed in CHO cells. It counts as cell-based.
Delta-type opioid receptor, sequence (P41143 whole entry): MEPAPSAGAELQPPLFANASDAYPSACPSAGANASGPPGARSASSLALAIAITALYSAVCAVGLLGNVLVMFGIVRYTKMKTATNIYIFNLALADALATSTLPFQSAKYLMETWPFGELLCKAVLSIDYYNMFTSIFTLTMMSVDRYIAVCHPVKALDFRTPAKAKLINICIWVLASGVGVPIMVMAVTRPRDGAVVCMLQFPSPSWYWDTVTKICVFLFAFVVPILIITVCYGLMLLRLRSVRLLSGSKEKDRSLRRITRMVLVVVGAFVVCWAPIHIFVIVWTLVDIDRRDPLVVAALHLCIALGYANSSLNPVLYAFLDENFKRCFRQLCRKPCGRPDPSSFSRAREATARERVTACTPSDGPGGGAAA
The target of assay [4] is T2, Kappa-type opioid receptor (Homo sapiens, UniProt P41145). Put plainly: Displacement of [3H]U69,593 from human kappa opioid receptor expressed in CHO cells. It counts as cell-based.
T2 sequence (P41145 whole entry): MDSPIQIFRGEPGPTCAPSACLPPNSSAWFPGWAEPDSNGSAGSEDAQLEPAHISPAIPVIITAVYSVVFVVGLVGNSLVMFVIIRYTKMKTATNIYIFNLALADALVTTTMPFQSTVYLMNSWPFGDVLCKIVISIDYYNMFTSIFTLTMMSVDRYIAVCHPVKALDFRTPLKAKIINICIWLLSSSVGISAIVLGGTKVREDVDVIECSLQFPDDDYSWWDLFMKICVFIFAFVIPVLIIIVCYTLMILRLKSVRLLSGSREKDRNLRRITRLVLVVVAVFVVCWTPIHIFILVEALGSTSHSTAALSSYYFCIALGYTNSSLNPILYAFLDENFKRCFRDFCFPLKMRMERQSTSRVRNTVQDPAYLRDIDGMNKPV
For assay [5], the target named is T1, Mu-type opioid receptor. Briefly: Agonist activity at human mu opioid receptor expressed in CHO cells assessed as stimulation of [35S]GTPgammaS binding. The format is functional, cell-based.
In assay [6] the target is T2, Kappa-type opioid receptor. Briefly: Agonist activity at human kappa opioid receptor expressed in CHO cells assessed as stimulation of [35S]GTPgammaS binding. It counts as functional, cell-based.
Assay [7] has as its system CHO. Briefly: Ratio of Ki for human delta opioid receptor to Ki for human kappa opioid receptor expressed in CHO cells. It counts as cell-based.
The test system of assay [8] is CHO. Put plainly: Ratio of Ki for human mu opioid receptor to Ki for human kappa opioid receptor expressed in CHO cells. It counts as cell-based.
Assay [9] has as its target T1, Mu-type opioid receptor. Briefly: Agonist activity at human mu opioid receptor expressed in CHO cells assessed as stimulation of [35S]GTPgammaS binding relative to basal [35S]GTPgammaS binding. It counts as functional, cell-based.
The nature of assay [10]: Displacement of [3H]Naltrindole from human delta opioid receptor expressed in CHO cells.
The target in assay [11] is T1, Mu-type opioid receptor. Put plainly: Antagonist activity at human mu opioid receptor expressed in CHO cells assessed as inhibition of DAMGO-induced [35S]GTPgammaS binding at 10 uM. It counts as functional, cell-based.

Usually IC50 stands for the concentration at which inhibition is half-maximal. As a reminder, the Ki is the equilibrium dissociation constant of an inhibitor or competing ligand from its target. The low end stands for higher affinity, the high end for lower affinity. For orientation: EC50 means the concentration at which the effect is half-maximal. One may read the Emax as the size of the effect at its maximum, as opposed to the concentration needed.

Active and inactive are the calls of the source. The rule behind the calls is not given here. Some results are limits rather than exact numbers.

T1 sequence (P35372 whole entry): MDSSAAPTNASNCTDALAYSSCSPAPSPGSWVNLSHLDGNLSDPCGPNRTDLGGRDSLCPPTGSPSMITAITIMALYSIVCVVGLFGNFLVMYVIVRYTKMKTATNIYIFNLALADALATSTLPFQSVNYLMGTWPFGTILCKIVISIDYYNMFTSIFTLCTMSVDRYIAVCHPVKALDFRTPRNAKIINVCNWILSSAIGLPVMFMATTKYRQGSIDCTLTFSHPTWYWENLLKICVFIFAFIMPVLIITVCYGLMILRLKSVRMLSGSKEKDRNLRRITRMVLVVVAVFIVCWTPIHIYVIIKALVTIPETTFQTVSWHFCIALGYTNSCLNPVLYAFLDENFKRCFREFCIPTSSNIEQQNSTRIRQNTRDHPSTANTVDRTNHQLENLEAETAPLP

Regarding `C[C@H]1C2Cc3cc4[nH]cnc4cc3[C@@]1(C)CCN2CC1CC1`, on Mu-type opioid receptor [1] (read-out: IC50), the half-maximal inhibitory concentration (IC50) turned out to be 170 nM. Moreover, the Ki on Mu-type opioid receptor [2] is 0.31 nM; in assay [3] it was 5.1 nM; in assay [4] it was 0.063 nM. The EC50 was determined as 9.8 nM at Mu-type opioid receptor [5] and 4.7 nM in [6].
As for `Cc1nc2c3c(ccc2[nH]1)CC1[C@H](C)[C@]3(C)CCN1CC1CC1`, the Ki on Mu-type opioid receptor [2] was found to be 2.5 nM; in assay [3], 160 nM; in [4] it was 0.51 nM. The Ratio Ki in the assay with CHO [7] came out at 310; in the assay with CHO [8], 5.
For the molecule `C[C@H]1[C@H]2Cc3ccc(O)cc3[C@]1(C)CCN2CC1CC1` [CYCLAZOCINE], the Ki in [3] was determined as 2 nM; in assay [4] it was 0.07 nM. The EC50 in [6] turned out to be 1.3 nM.
In the case of `Cc1nc2cc3c(cc2[nH]1)[C@@]1(C)CCN(CC2CC2)C(C3)[C@@H]1C`, at Mu-type opioid receptor [1], the Imax was 100%. Further, the IC50 at Mu-type opioid receptor [1] (read-out: IC50) came to 11000 nM. For the same molecule, the Ki is 0.77 nM on Mu-type opioid receptor [2], 18 nM in assay [3] and 0.05 nM in [4]. Moreover, the Emax on Mu-type opioid receptor [9] turned out to be 55%. In addition, the values for the EC50 (at Mu-type opioid receptor [5]; in assay [6]) were 18 nM and 5.8 nM, respectively.
`C[C@H]1C2Cc3cc4nc[nH]c4cc3[C@@]1(C)CCN2CC1CC1`: the Imax on Mu-type opioid receptor [1] amounted to 89%. Also, the Emax on Mu-type opioid receptor [9] was 22%.
As for `C[C@@H](NC(=O)[C@@H](N)Cc1ccc(O)cc1)C(=O)NCC(=O)N(C)[C@@H](Cc1ccccc1)C(=O)NCCO` [DAMGO], the Imax result on Mu-type opioid receptor [1] was “inactive”. In addition, the half-inhibitory concentration (IC50) result at Mu-type opioid receptor [1] (cho) is “Not Active”.
Take `C[C@H]1C2Cc3ccc4[nH]cnc4c3[C@@]1(C)CCN2CC1CC1`: the results for the inhibition constant Ki (at Mu-type opioid receptor [2]; in assay [3]; in [4]) were 9.5 nM, 680 nM and 0.92 nM, respectively. In addition, the Ratio Ki with CHO [7] came out at 740; in the assay on CHO [8], 10.
Consider `C[C@H]1C2Cc3cc4cc[nH]c4cc3[C@@]1(C)CCN2CC1CC1`, for which the Ki on Mu-type opioid receptor [2] worked out at 18 nM; in [4] it was 7 nM; in assay [10], 250 nM. Moreover, the Ratio Ki in the assay with CHO [7] amounted to 36; in the assay on CHO [8], 3.
On to `C[C@H]1C2Cc3cc4nc(O)[nH]c4cc3[C@@]1(C)CCN2CC1CC1`, for which the figures for the inhibitory constant (Ki) (at Mu-type opioid receptor [2]; in assay [3]; in assay [4]) were 60 nM, 730 nM and 12 nM, respectively. Besides, the Ratio Ki came out at 61 in the assay on CHO [7] and 5 in the assay on CHO [8].
Turning to `C[C@H]1C2Cc3ccc4[nH]nnc4c3[C@@]1(C)CCN2CC1CC1`, the Imax at Mu-type opioid receptor [1] was found to be 98%. For the same molecule, at Mu-type opioid receptor [1] (read-out: IC50), the 50% inhibitory concentration (IC50) came out at 99 nM. The maximal response (Emax) at Mu-type opioid receptor [9] was found to be 0.58%. In assay [6], the EC50 was determined as 8.6 nM.
With `C[C@H]1C2Cc3cc4nn[nH]c4cc3[C@@]1(C)CCN2CC1CC1`, the Emax on Mu-type opioid receptor [9] is below 20%. Besides, the Imax at Mu-type opioid receptor [11] was determined as 73%. For the same molecule, the half-maximal effective concentration (EC50) in assay [6] is 77 nM.

These data come from ChEMBL document CHEMBL1136834 (Bioorg Med Chem Lett, 2009).
